# Measured values taken from US20060121126A1, “Environmentally friendly pesticide and method of use” (priority 2004, published 2006).
# Test system: Culex pipiens and Aedes Egypti late 3rd instar larvae
# Assay: Mosquito larvae mortality in cups of tap water
# Assay type: in vivo
# Conditions: 20 larvae in 150 mL tap water
# Experimental: A series of control experiments are conducted to study the effect of aqueous hydrogen peroxide and saponin extract on mosquito larvae, individually, and in combination. In a series of 30 experiments, 20 Culex pipiens and Aedes Egypti in the late 3rd instar larvae are placed in a cup containing 150 mL of tap water. In separate experiments, the larvae are exposed to varying concentrations of hydrogen peroxide saponin extract. The mortality is recorded over a 5-day period.
compound,measurement,value
OO [hydrogen peroxide],concentration needed to achieve 50% larvae mortality in 24 hrs,> 100 ppm
